Laboratory results from patent publication US9604961B2, “Histone demethylase inhibitors” (Celgene Quanticel Research, Inc., priority 2012, dated 2017).
Like-named read-outs stand apart in the source and are kept apart here.

Key:
Jarid1A = Jarid1A (Homo sapiens (Human), UniProt P29375); experiment: Jarid1A in vitro enzyme inhibition assay (TR-FRET); type: biochemical
Description: The enzymatic assay of Jarid1A activity is based upon Time Resolved-Fluorescence Resonance Energy Transfer (TR-FRET) detection.

Jarid1B = Jarid1B (Homo sapiens (Human), UniProt Q9UGL1); experiment: Jarid1B in vitro enzyme inhibition assay (TR-FRET); type: biochemical
JMJD2C = JMJD2C (Homo sapiens (Human), UniProt Q9H3R0); experiment: JMJD2C in vitro enzyme inhibition assay (TR-FRET); type: biochemical
FBXL10 = FBXL10 (Homo sapiens (Human), UniProt Q8NHM5); experiment: FBXL10 in vitro enzyme inhibition assay (AlphaScreen); type: biochemical
Protocol: Reaction product was determined quantitatively by AlphaScreen detection after the addition of detection reagents anti-H3K36me1 antibody, AlphaScreen® Streptavidin-coated Donor beads, and AlphaScreen® Protein A Acceptor beads in 50 mM HEPES, pH7.3, 10 mM NaCl, 0.005% Brij35, 5 mM EDTA, 2 mg/ml BSA to final 10 μg/ml beads.
Plates were incubated at room temperature for 40 minutes, followed by addition of 3 μl of 50 μg/ml AlphaScreen® Streptavidin-coated Donor beads and AlphaScreen® Protein A Acceptor beads in 50 mM HEPES, pH7.3, 10 mM NaCl, 0.005% Brij35, 5 mM EDTA, 2 mg/ml BSA. Plates were read by EnVisionMultilabel Reader in AlphaScreen mode after a minimum of 2 hour or up to overnight incubation at room temperature. The AlphaScreen signal for each well was used to determine inhibition constant (IC50).

JMJD2A = JMJD2A (Homo sapiens (Human), UniProt O75164); experiment: JMJD2A in vitro enzyme inhibition assay (TR-FRET); conditions: read-out: JMJD2A IC50
Protocol: This assay determines the ability of a test compound to inhibit Jarid1A, Jarid1B, JMJD2C, and JMJD2A demethylase activity.
Reaction product was determined quantitatively by TR-FRET after the addition of detection reagent Phycolink Streptavidin-allophycocyanin (Prozyme) and Europium-anti-di-methylated histone H3 lysine 9 (H3K9me2) antibody (PerkinElmer) in the presence of 5 mM EDTA in LANCE detection buffer (PerkinElmer) at a final concentration of 50 nM and 1 nM, respectively.
The assay reaction was initiated by the following: 2 μl of the mixture of 900 nM H3K9me3-biotin labeled peptide and 6 μM alpha-ketoglutaric acid with 2 μl of 11-point serial diluted inhibitor in 3% DMSO were added to each well of plate, followed by the addition of 2 μl of 6 nM JMJD2A to initiate the reaction. The reaction mixture was incubated at room temperature for 30 minutes, and terminated by the addition of 6 μl of 5 mM EDTA in LANCE detection buffer containing 100 nM Phycolink Streptavidin-allophycocyanin and 2 nM Europium-anti-H3K9me2 antibody.

KDM5A/B = experiment: In vitro cell-based assay: quantitative immuno-blotting of tri-methyl H3K4 in ZR-75-1 breast cancer cells; conditions: 72 hours exposure, read-out: Cellular IC50
Description: This quantitative immuno-blotting assay measures the amount tri-methylated histone H3 at amino acid Lysine number 4, a specific substrate […] of the direct enzymatic activity of the histone demethylases KDM5A and KDM5B from extracts of the ZR-75-1 breast cancer cell line.
This assay is a fluorometric immunoassay for the quantification of tri-methyl H3K4 extracted from cells treated with test compound and is used as a measure of the cellular inhibition of KDM5A/B.
ZR-75-1 (PTEN null, ER+) breast cancer cells numbering 50,000 (ATCC) were seeded into each well of a 96-well tissue culture treated plate and then exposed to an 11 point dilution of test compound with final concentration ranges of test compound ranging from […] to 10 nM. […] Extracts were prepared containing all of the cellular histone material using detergent based lysis and sonication methods. These lysates were subsequently normalized for total protein content using a colorimetric bicinchonic acid assay (MicroBCA Pierce/Thermo Scientific). Normalized cell extracts were then subjected to typical immuno-blotting procedures using NuPage reagents (Life Technologies). Electrophoretically separated histones were then transferred and immobilized using polyvinylidene difluoride membrane (Immobilon-FL Millipore). The amount of tri-methylated lysine 4 of histone H3 was detected using an antibody specific to the tri-methylated state (Cell Signaling Technologies) and quantified on an infrared imager using a densitometry software package (Odyssey CLx, Image Studio, Li-Cor). This background subtracted densitometry value was reported as a ration of the GAPDH amount for that sample and then calculated as a percent of the DMSO treated sample. The software package XL-fit (IDBS) was then used to calculate a relative IC50 value for the dilution series of a given test compound according to the equation: fit=(D+((Vmax*(x^n))/((x^n)+(Km^n)))).

Sequence of Jarid1B (Q9UGL1 2-751): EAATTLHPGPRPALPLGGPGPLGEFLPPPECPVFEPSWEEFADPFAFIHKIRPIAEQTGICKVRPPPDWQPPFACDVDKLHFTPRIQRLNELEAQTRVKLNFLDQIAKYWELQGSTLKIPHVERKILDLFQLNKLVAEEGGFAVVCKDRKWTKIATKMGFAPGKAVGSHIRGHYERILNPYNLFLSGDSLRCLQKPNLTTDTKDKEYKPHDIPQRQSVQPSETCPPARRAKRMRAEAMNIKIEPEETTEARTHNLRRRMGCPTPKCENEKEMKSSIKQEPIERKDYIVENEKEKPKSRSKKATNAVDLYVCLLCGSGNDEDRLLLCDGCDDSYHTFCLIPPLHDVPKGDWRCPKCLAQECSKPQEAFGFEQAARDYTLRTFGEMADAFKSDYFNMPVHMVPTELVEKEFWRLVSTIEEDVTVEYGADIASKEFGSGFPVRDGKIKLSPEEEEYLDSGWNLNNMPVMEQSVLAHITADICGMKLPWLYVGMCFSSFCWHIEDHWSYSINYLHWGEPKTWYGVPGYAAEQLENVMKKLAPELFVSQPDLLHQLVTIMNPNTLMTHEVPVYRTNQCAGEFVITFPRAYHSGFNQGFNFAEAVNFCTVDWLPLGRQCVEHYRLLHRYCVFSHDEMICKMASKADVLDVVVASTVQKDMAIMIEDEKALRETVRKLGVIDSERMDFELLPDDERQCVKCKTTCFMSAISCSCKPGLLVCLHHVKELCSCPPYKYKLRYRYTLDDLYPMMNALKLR
Sequence of Jarid1A (P29375 1-1090): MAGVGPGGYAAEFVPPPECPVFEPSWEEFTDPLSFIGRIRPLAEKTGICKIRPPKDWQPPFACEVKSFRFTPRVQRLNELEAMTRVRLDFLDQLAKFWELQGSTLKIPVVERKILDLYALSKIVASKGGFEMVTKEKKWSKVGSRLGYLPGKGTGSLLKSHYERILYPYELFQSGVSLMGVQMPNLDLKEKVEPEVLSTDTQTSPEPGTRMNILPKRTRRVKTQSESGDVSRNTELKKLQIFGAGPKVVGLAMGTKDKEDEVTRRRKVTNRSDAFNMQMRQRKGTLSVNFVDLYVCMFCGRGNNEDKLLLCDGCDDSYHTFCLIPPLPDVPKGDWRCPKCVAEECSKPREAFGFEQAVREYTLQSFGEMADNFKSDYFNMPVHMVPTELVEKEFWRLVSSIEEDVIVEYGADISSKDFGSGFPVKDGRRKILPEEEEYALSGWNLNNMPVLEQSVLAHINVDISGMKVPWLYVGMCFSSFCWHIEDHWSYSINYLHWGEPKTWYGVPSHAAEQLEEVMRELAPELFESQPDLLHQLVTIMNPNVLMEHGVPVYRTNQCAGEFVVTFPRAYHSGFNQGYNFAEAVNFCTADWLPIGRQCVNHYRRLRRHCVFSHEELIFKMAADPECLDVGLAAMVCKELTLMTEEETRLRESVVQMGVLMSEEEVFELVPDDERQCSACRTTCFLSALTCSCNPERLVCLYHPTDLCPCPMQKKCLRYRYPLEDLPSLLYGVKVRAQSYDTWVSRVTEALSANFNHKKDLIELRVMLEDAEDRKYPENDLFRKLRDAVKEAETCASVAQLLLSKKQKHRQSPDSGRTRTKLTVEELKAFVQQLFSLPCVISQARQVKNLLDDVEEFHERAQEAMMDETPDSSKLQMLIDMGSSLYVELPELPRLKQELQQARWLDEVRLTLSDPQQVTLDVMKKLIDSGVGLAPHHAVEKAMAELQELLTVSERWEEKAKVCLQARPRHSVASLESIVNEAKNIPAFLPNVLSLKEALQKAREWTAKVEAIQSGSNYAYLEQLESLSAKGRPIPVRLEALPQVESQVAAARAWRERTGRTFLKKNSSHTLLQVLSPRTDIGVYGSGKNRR
Sequence of JMJD2C (Q9H3R0 2-372): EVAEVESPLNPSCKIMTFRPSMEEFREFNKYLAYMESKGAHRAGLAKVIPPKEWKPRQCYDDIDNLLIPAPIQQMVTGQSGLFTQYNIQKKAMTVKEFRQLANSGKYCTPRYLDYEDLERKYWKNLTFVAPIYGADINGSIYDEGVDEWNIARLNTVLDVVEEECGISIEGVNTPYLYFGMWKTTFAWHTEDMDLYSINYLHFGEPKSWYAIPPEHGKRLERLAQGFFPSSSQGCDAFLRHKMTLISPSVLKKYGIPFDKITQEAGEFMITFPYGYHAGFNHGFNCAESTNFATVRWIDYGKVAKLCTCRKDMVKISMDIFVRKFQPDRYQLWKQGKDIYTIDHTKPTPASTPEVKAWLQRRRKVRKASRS
Sequence of FBXL10 (Q8NHM5 1-650): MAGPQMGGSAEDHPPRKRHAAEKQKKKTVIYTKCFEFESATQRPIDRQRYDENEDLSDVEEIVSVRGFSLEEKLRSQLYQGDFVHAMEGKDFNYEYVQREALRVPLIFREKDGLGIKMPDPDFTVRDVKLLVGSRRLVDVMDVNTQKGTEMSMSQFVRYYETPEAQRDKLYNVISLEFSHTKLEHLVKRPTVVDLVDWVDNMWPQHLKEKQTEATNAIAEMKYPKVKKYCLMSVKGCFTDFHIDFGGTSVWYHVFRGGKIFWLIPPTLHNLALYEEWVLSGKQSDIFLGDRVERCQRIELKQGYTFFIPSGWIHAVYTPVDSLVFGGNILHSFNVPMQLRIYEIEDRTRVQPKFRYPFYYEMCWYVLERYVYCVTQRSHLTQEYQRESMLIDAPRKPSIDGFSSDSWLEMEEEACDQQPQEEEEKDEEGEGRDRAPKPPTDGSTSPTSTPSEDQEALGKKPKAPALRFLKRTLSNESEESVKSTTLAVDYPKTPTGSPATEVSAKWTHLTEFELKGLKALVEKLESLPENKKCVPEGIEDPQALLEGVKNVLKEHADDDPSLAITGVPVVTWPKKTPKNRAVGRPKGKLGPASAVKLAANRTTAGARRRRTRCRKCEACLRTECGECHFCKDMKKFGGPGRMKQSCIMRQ
Sequence of JMJD2A (O75164 1-350): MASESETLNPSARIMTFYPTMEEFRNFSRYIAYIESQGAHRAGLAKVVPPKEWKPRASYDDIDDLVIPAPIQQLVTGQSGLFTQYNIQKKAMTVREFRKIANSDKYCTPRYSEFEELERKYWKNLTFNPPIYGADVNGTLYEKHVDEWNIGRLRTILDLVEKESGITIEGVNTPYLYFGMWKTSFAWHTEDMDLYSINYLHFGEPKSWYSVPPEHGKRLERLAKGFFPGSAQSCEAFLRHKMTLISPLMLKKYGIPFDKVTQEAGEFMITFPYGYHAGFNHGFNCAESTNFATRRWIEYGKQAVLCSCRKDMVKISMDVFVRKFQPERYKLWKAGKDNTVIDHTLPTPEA

Compound	IC50 (Jarid1A)	IC50 (Jarid1B)	IC50 (JMJD2C)	IC50 (FBXL10)	IC50 (JMJD2A)	IC50 (KDM5A/B; Homo sapiens)	IC50 (KDM5A/B)
CCCCOc1cc(Cl)ccc1COc1ccnn1-c1cc(C(=O)O)ccn1 [Example 111, 2-[5-[(2-butoxy-4-chlorophenyl)methoxy]pyrazol-1-yl]pyridine-4-carboxylic acid]	0.1 to 1 µM	0.1 to 1 µM	1 to 10 µM	1 to 10 µM	1 to 10 µM	–	–
CC(C)COc1cc(Cl)ccc1COc1ccnn1-c1cc(C(=O)O)ccn1 [Example 112, 2-[5-[[4-chloro-2-(2-methylpropoxy)phenyl]methoxy]pyrazol-1-yl]pyridine-4-carboxylic acid]	0.1 to 1 µM	0.1 to 1 µM	1 to 10 µM	1 to 10 µM	1 to 10 µM	–	–
O=C(O)c1ccnc(-n2nccc2OCc2ccc(F)cc2OCc2ccc(F)cc2)c1 [Example 118, 2-[5-[[4-fluoro-2-[(4-fluorophenyl)methoxy]phenyl]methoxy]pyrazol-1-yl]pyridine-4-carboxylic acid]	< 0.1 µM	< 0.1 µM	0.1 to 1 µM	1 to 10 µM	0.1 to 1 µM	–	–
Cc1ccc(COc2ccnn2-c2cc(C(=O)O)ccn2)c(Cl)c1 [Example 130, 2-[5-[(2-chloro-4-methylphenyl)methoxy]pyrazol-1-yl]pyridine-4-carboxylic acid]	0.1 to 1 µM	0.1 to 1 µM	1 to 10 µM	1 to 10 µM	0.1 to 1 µM	–	–
Cc1ccc(COc2ccnn2-c2cc(C(=O)O)ccn2)c(C)c1 [Example 132, 2-[5-[(2,4-dimethylphenyl)methoxy]pyrazol-1-yl]pyridine-4-carboxylic acid]	< 0.1 µM	< 0.1 µM	0.1 to 1 µM	1 to 10 µM	0.1 to 1 µM	–	–
O=C(O)c1ccnc(-n2nccc2OCc2ccc(F)c(OCc3ccc(F)cc3)c2)c1 [Example 139, 2-[5-[[4-fluoro-3-[(4-fluorophenyl)methoxy]phenyl]methoxy]pyrazol-1-yl]pyridine-4-carboxylic acid]	–	–	–	–	–	0.1 to 1 µM	–
O=C(O)c1ccnc(-n2nccc2OCc2ccc(Cl)c(OCC3CC3)c2)c1 [Example 140, 2-[5-[[4-chloro-3-(cyclopropylmethoxy)phenyl]methoxy]pyrazol-1-yl]pyridine-4-carboxylic acid]	0.1 to 1 µM	0.1 to 1 µM	–	1 to 10 µM	0.1 to 1 µM	–	–
CC(c1ccccc1)c1cc(O)n(-c2cc(C(=O)O)ccn2)n1 (centres unmarked) [Example 162, 2-[5-hydroxy-3-(1-phenylethyl)pyrazol-1-yl]pyridine-4-carboxylic acid]	–	1 to 10 µM	1 to 10 µM	< 0.1 µM	> 10 µM	–	–
O=C(O)c1ccnc(-n2nc(Cc3ccccc3Cl)cc2O)c1 [Example 163, 2-[3-[(2-chlorophenyl)methyl]-5-hydroxypyrazol-1-yl]pyridine-4-carboxylic acid]	–	1 to 10 µM	1 to 10 µM	< 0.1 µM	> 10 µM	–	–
O=C(O)c1ccnc(-n2nc(Cc3cccc(Cl)c3)cc2O)c1 [Example 164, 2-[3-[(3-chlorophenyl)methyl]-5-hydroxypyrazol-1-yl]pyridine-4-carboxylic acid]	–	1 to 10 µM	1 to 10 µM	< 0.1 µM	> 10 µM	–	–
Oc1cc(Cc2ccc(Cl)cc2)nn1-c1cc(-c2nnn[nH]2)ccn1 [Example 169, 5-[(4-chlorophenyl)methyl]-2-[4-(1H-tetrazol-5-yl)pyridin-2-yl]pyrazol-3-ol]	–	1 to 10 µM	1 to 10 µM	< 0.1 µM	> 10 µM	–	–
methyl 2-[5-(benzyloxy)-1H-pyrazol-1-yl]pyridine-4-carboxylate [Example 62]	–	–	–	–	–	–	1 to 10 µM

The next lines start with results.

IC50 (Jarid1A)	IC50 (Jarid1B)	IC50 (JMJD2C)	IC50 (FBXL10)	IC50 (JMJD2A)	IC50 (KDM5A/B; Homo sapiens)	Compound	IC50 (KDM5A/B)
< 0.1 µM	< 0.1 µM	0.1 to 1 µM	< 0.1 µM	0.1 to 1 µM	–	O=C(O)c1ccnc(-n2nc(C3CC3)cc2O)c1 [Example 2, 2-(3-cyclopropyl-5-hydroxy-1H-pyrazol-1-yl)isonicotinic acid]	–
0.1 to 1 µM	0.1 to 1 µM	0.1 to 1 µM	–	0.1 to 1 µM	–	Cc1ccc(-c2ccnn2-c2cc(C(=O)O)ccn2)cc1 [Example 12, 2-(5-p-tolyl-1H-pyrazol-1-yl)isonicotinic acid]	–
0.1 to 1 µM	0.1 to 1 µM	0.1 to 1 µM	–	0.1 to 1 µM	–	O=C(O)c1ccnc(-n2nccc2-c2ccc(F)cc2F)c1 [Example 14, 2-(5-(2,4-difluorophenyl)-1H-pyrazol-1-yl)isonicotinic acid]	–
0.1 to 1 µM	0.1 to 1 µM	0.1 to 1 µM	–	0.1 to 1 µM	–	O=C(O)c1ccnc(-n2nccc2-c2cccc(O)c2)c1 [Example 17, 2-(5-(3-hydroxyphenyl)-1H-pyrazol-1-yl)isonicotinic acid]	–
0.1 to 1 µM	0.1 to 1 µM	0.1 to 1 µM	–	0.1 to 1 µM	–	O=C(O)c1ccnc(-n2ccc(CCc3ccccc3)n2)c1 [Example 35, 2-(3-phenethyl-1H-pyrazol-1-yl)isonicotinic acid]	–
< 0.1 µM	< 0.1 µM	< 0.1 µM	–	< 0.1 µM	–	O=C(O)c1ccnc(-n2nccc2OCc2ccccc2)c1 [Example 39, 2-(5-(benzyloxy)-1H-pyrazol-1-yl)isonicotinic acid]	–
< 0.1 µM	< 0.1 µM	< 0.1 µM	–	–	0.1 to 1 µM	O=C(O)c1ccnc(-n2nccc2OCc2ccc(Br)cc2)c1 [Example 57, 2-{5-[(4-bromobenzyl)oxy]-1H-pyrazol-1-yl}pyridine-4-carboxylic acid]	–
< 0.1 µM	< 0.1 µM	< 0.1 µM	–	–	1 to 10 µM	O=C(O)c1ccnc(-n2nccc2OCc2cccc(Br)c2)c1 [Example 72, 2-{5-[(3-bromobenzyl)oxy]-1H-pyrazol-1-yl}pyridine-4-carboxylic acid]	–
< 0.1 µM	< 0.1 µM	< 0.1 µM	–	–	1 to 10 µM	O=C(O)c1ccnc(-n2nccc2OCc2ccc(Cl)c(F)c2)c1 [Example 74, 2-{5-[(4-chloro-3-fluorobenzyl)oxy]-1H-pyrazol-1-yl}pyridine-4-carboxylic acid]	–
< 0.1 µM	< 0.1 µM	0.1 to 1 µM	–	–	0.1 to 1 µM	O=C(O)c1ccnc(-n2nccc2OCc2ccc(Cl)c(Cl)c2)c1 [Example 87, 2-[5-[(3,4-dichlorophenyl)methoxy]pyrazol-1-yl]pyridine-4-carboxylic acid]	–
0.1 to 1 µM	< 0.1 µM	–	–	–	> 10 µM	CC1(C)Cc2cccc(COc3ccnn3-c3cc(C(=O)O)ccn3)c2O1 [Example 124, 2-[5-[(2,2-dimethyl-3H-1-benzofuran-7-yl)methoxy]pyrazol-1-yl]pyridine-4-carboxylic acid]	–
1 to 10 µM	1 to 10 µM	1 to 10 µM	< 0.1 µM	1 to 10 µM	–	O=C(O)c1ccnc(-n2nc(-c3ccc(Cl)cc3)cc2O)c1 [Example 158, 2-[3-(4-chlorophenyl)-5-hydroxypyrazol-1-yl]pyridine-4-carboxylic acid]	–
1 to 10 µM	1 to 10 µM	1 to 10 µM	< 0.1 µM	> 10 µM	–	O=C(O)c1ccnc(-n2nc(-c3cccc(Cl)c3)cc2O)c1 [Example 159, 2-[3-(3-chlorophenyl)-5-hydroxypyrazol-1-yl]pyridine-4-carboxylic acid]	–
1 to 10 µM	0.1 to 1 µM	1 to 10 µM	< 0.1 µM	> 10 µM	–	O=C(O)c1ccnc(-n2nc(C3CCCC3)cc2O)c1 [Example 160, 2-(3-cyclopentyl-5-hydroxypyrazol-1-yl)pyridine-4-carboxylic acid]	–
–	0.1 to 1 µM	1 to 10 µM	< 0.1 µM	> 10 µM	–	O=C(O)c1ccnc(-n2nc(Cc3ccc(Cl)cc3)cc2O)c1 [Example 165, 2-[3-[(4-chlorophenyl)methyl]-5-hydroxypyrazol-1-yl]pyridine-4-carboxylic acid]	–
